The values that follow come from ChEMBL document CHEMBL1157905, “Synthesis and antibacterial activities of a novel alkylide: 3-O-(3-aryl-2-propargyl) and 3-O-(3-aryl-2-propenyl)clarithromycin derivatives” (2010).

≈ marks a conversion by molar mass, not a printed value.

Holding throughout (assay type): functional
The test system of experiment [1] is Staphylococcus aureus. In words: Antimicrobial activity against erythromycin-susceptible Staphylococcus aureus PU19 encoded by erm(A) gene.
The subject of experiment [2] is Streptococcus pneumoniae. The experiment can be described thus: Antimicrobial activity against erythromycin-resistant Streptococcus pneumoniae PU13 encoded by erm and mef gene.
Experiment [3] concerns Streptococcus pneumoniae. The experiment can be described thus: Antimicrobial activity against erythromycin-resistant Streptococcus pneumoniae PU11 encoded by erm and mef gene.
The subject of experiment [4] is Streptococcus pneumoniae. In words: Antimicrobial activity against erythromycin-susceptible Streptococcus pneumoniae ATCC 49619.
Experiment [5] concerns Staphylococcus aureus. In words: Antimicrobial activity against erythromycin-susceptible Staphylococcus aureus PU32 encoded by erm(A) gene.
For experiment [6], the system named is Staphylococcus aureus. The experiment can be described thus: Antimicrobial activity against erythromycin-susceptible Staphylococcus aureus ATCC 29213.

As for `CC[C@H]1OC(=O)[C@H](C)[C@@H](O/C=C\Cc2cncc3ccccc23)[C@H](C)[C@@H](O[C@@H]2O[C@H](C)C[C@H](N(C)C)[C@H]2O)[C@](C)(OC)C[C@@H](C)/C(=N\OCc2ccccc2Cl)[C@H](C)[C@H]2OC(=O)O[C@@]21C`, the MIC – broadly, the least concentration at which growth counts as inhibited – in the experiment on Staphylococcus aureus [1] stood at 64 µg/mL (≈ 69.4 µM); with Streptococcus pneumoniae [2], 32 µg/mL (≈ 34.7 µM); against Streptococcus pneumoniae [3] it was 32 µg/mL (≈ 34.7 µM); in the experiment with Streptococcus pneumoniae [4] it was 0.25 µg/mL (≈ 0.271 µM); against Staphylococcus aureus [5], 32 µg/mL (≈ 34.7 µM); in the experiment on Staphylococcus aureus [6] it was 8 µg/mL (≈ 8.67 µM).

In the case of `CC[C@H]1OC(=O)[C@H](C)[C@@H](O[C@H]2C[C@@](C)(OC)[C@@H](O)[C@H](C)O2)[C@H](C)[C@@H](O[C@@H]2O[C@H](C)C[C@H](N(C)C)[C@H]2O)[C@](C)(O)C[C@@H](C)CN(C)[C@H](C)[C@@H](O)[C@]1(C)O` [AZITHROMYCIN], the MIC in the experiment with Staphylococcus aureus [1] is > 256 µg/mL; against Streptococcus pneumoniae [2], 128 µg/mL (≈ 171 µM); against Streptococcus pneumoniae [3] it was 128 µg/mL (≈ 171 µM); in the experiment with Streptococcus pneumoniae [4] it was 0.064 µg/mL (≈ 0.0854 µM); against Staphylococcus aureus [5], 64 µg/mL (≈ 85.4 µM); in the experiment on Staphylococcus aureus [6], 0.5 µg/mL (≈ 0.668 µM).

As for `CC[C@H]1OC(=O)[C@H](C)[C@@H](OC/C=C/c2cncc3ccccc23)[C@H](C)[C@@H](O[C@@H]2O[C@H](C)C[C@H](N(C)C)[C@H]2O)[C@](C)(OC)C[C@@H](C)/C(=N\OCc2ccccc2Cl)[C@H](C)[C@H]2OC(=O)O[C@@]21C`, the MIC was determined as 64 µg/mL (≈ 69.4 µM) against Staphylococcus aureus [1]; 32 µg/mL (≈ 34.7 µM) in the experiment with Streptococcus pneumoniae [2]; 32 µg/mL (≈ 34.7 µM) in the experiment with Streptococcus pneumoniae [3]; 4 µg/mL (≈ 4.34 µM) against Streptococcus pneumoniae [4]; 64 µg/mL (≈ 69.4 µM) with Staphylococcus aureus [5]; 64 µg/mL (≈ 69.4 µM) in the experiment on Staphylococcus aureus [6].

In the case of `CC[C@H]1OC(=O)[C@H](C)[C@@H](O[C@H]2C[C@@](C)(OC)[C@@H](O)[C@H](C)O2)[C@H](C)[C@@H](O[C@@H]2O[C@H](C)C[C@H](N(C)C)[C@H]2O)[C@](C)(OC)C[C@@H](C)C(=O)[C@H](C)[C@@H](O)[C@]1(C)O` [CLARITHROMYCIN], the MIC with Staphylococcus aureus [1] was > 256 µg/mL; in the experiment with Streptococcus pneumoniae [2], 128 µg/mL (≈ 171 µM); against Streptococcus pneumoniae [3], 128 µg/mL (≈ 171 µM); in the experiment on Streptococcus pneumoniae [4], 0.032 µg/mL (≈ 0.0428 µM); in the experiment on Staphylococcus aureus [5], 128 µg/mL (≈ 171 µM); in the experiment on Staphylococcus aureus [6] it was 0.5 µg/mL (≈ 0.668 µM).
